From ChEMBL document CHEMBL1201862, “PubChem BioAssay data set” (2004)
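Exposure lasted 48 hours, with cells grown in 96-well plates and compounds tested at five concentrations. At the GI50, growth is halved.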 Activity calls are given as the source filed them. Rule as the data show it: active = GI50 up to about 1.1 µM and inactive = higher.

Columns and labels:
Assay in all cases: inhibition of tumour cell growth, NCI panel, 48 h
MOLT-4 = tested on: MOLT-4
SK-MEL-5 = tested on: SK-MEL-5
SK-MEL-28 = tested on: SK-MEL-28
NCI/ADR-RES = tested on: NCI/ADR-RES
U-251 = tested on: U-251
M14 = tested on: M14
HCT-15 = tested on: HCT-15
A498 = tested on: A498
OVCAR-8 = tested on: OVCAR-8
SN12C = tested on: SN12C
SK-OV-3 = tested on: SK-OV-3
MDA-N = tested on: MDA-N
MCF7 = tested on: MCF7
MDA-MB-435 = tested on: MDA-MB-435
HCT-116 = tested on: HCT-116
SF-268 = tested on: SF-268
COLO 205 = tested on: COLO 205
OVCAR-3 = tested on: OVCAR-3
NCI-H23 = tested on: NCI-H23
SNB-75 = tested on: SNB-75

| Compound | GI50 (MOLT-4) | GI50 (SK-MEL-5) | GI50 (SK-MEL-28) | GI50 (NCI/ADR-RES) | GI50 (U-251) | GI50 (M14) | GI50 (HCT-15) [µM] | GI50 (A498) | GI50 (OVCAR-8) | GI50 (SN12C) | GI50 (SK-OV-3) | GI50 (MDA-N) | GI50 (MCF7) | GI50 (MDA-MB-435) | GI50 (HCT-116) | GI50 (SF-268) | GI50 (COLO 205) | GI50 (OVCAR-3) | GI50 (NCI-H23) | GI50 (SNB-75) |
| --- | --- | --- | --- | --- | --- | --- | --- | --- | --- | --- | --- | --- | --- | --- | --- | --- | --- | --- | --- | --- |
| COc1ccc(Nc2nc(N)c(C(=O)c3cccs3)s2)cc1 | 2.51 µM (inactive) | 2.8 µM (inactive) | 31 µM (inactive) | 10.7 µM (inactive) | 7.5 µM (inactive) | 13.4 µM (inactive) | 3.11 | 6.68 µM (inactive) | 19.2 µM (inactive) | 27.5 µM (inactive) | 20.6 µM (inactive) | 3.92 µM (inactive) | 5.21 µM (inactive) | 1.24 µM (inactive) | 3.22 µM (inactive) | 17 µM (inactive) | 3.98 µM (inactive) | 3.47 µM (inactive) | 12.8 µM (inactive) | – |
| O=c1[nH]c(=S)[nH]n1C(=S)n1[nH]c(=S)[nH]c1=O | > 100 µM (inactive) | > 100 µM (inactive) | > 100 µM (inactive) | > 100 µM (inactive) | > 100 µM (inactive) | > 100 µM (inactive) | > 100 | > 100 µM (inactive) | > 100 µM (inactive) | > 100 µM (inactive) | – | > 100 µM (inactive) | 2.94 µM (inactive) | > 100 µM (inactive) | > 100 µM (inactive) | > 100 µM (inactive) | > 100 µM (inactive) | 41.7 µM (inactive) | > 100 µM (inactive) | > 100 µM (inactive) |
| NS(=O)(=O)c1ccc(-n2c(-c3cccs3)nc3ccc(I)cc3c2=O)cc1 | 52.8 µM (inactive) | 23.7 µM (inactive) | 17.3 µM (inactive) | 29.1 µM (inactive) | 20 µM (inactive) | 23.7 µM (inactive) | 20.9 | – | 31.4 µM (inactive) | 30.3 µM (inactive) | 22.6 µM (inactive) | 33.3 µM (inactive) | 23.3 µM (inactive) | 18.9 µM (inactive) | 17.3 µM (inactive) | 28.2 µM (inactive) | 19.7 µM (inactive) | 16 µM (inactive) | 25.8 µM (inactive) | 37.7 µM (inactive) |
| CCOC(=O)C1C(=O)C=C(c2cc(C)ccc2O)CC1c1cccc(Cl)c1 (stereo unspecified) | 22.6 µM (inactive) | 19.2 µM (inactive) | – | 17.5 µM (inactive) | 18.5 µM (inactive) | 30.1 µM (inactive) | 3.13 | – | 29.3 µM (inactive) | 27.7 µM (inactive) | 20 µM (inactive) | 6.04 µM (inactive) | 19.5 µM (inactive) | 2.78 µM (inactive) | 34 µM (inactive) | 22.3 µM (inactive) | 18.5 µM (inactive) | 32 µM (inactive) | 26.4 µM (inactive) | – |
| COc1cc(/C=C(\C#N)c2nc3ccccc3o2)ccc1O | 28.5 µM (inactive) | 12.6 µM (inactive) | 17.7 µM (inactive) | 24.1 µM (inactive) | 12.3 µM (inactive) | 13.6 µM (inactive) | 16.4 | 16.3 µM (inactive) | 21.6 µM (inactive) | 34.7 µM (inactive) | 17.7 µM (inactive) | 23 µM (inactive) | 10 µM (inactive) | 16.4 µM (inactive) | 16.5 µM (inactive) | 19.9 µM (inactive) | 16.9 µM (inactive) | 14 µM (inactive) | 24.2 µM (inactive) | – |
| COc1ccc2cc(C(=O)NCCCNC(=O)c3ccc4c(OC)c(OC)ccc4c3)ccc2c1OC | > 100 µM (inactive) | > 100 µM (inactive) | > 100 µM (inactive) | > 100 µM (inactive) | > 100 µM (inactive) | – | > 100 | > 100 µM (inactive) | – | > 100 µM (inactive) | > 100 µM (inactive) | > 100 µM (inactive) | > 100 µM (inactive) | > 100 µM (inactive) | > 100 µM (inactive) | > 100 µM (inactive) | > 100 µM (inactive) | > 100 µM (inactive) | > 100 µM (inactive) | – |
| CN1C(C)(C)CC(=O)C(Br)C1(C)C (stereo unspecified) | > 100 µM (inactive) | > 100 µM (inactive) | > 100 µM (inactive) | > 100 µM (inactive) | > 100 µM (inactive) | > 100 µM (inactive) | > 100 | – | > 100 µM (inactive) | > 100 µM (inactive) | > 100 µM (inactive) | > 100 µM (inactive) | > 100 µM (inactive) | > 100 µM (inactive) | > 10 µM (inactive) | > 100 µM (inactive) | > 100 µM (inactive) | > 100 µM (inactive) | > 100 µM (inactive) | 61.8 µM (inactive) |
| c1cc2c(s1)-c1sccc1C21OCCO1 | > 100 µM (inactive) | 53.5 µM (inactive) | > 100 µM (inactive) | > 100 µM (inactive) | > 100 µM (inactive) | > 100 µM (inactive) | 76.2 | – | > 100 µM (inactive) | > 100 µM (inactive) | – | > 100 µM (inactive) | 49.9 µM (inactive) | > 100 µM (inactive) | 58.9 µM (inactive) | 18.7 µM (inactive) | > 100 µM (inactive) | > 100 µM (inactive) | > 100 µM (inactive) | – |
